In the oligonucleotide strings, read from the 5' end, every base follows the letter of its sugar. An asterisk marks phosphorothioate; unmarked linkages are phosphodiester. Other units and linkages are bracketed, terminal groups are in braces. A string of capitals states the bases alone. e = 2'-O-(2-methoxyethyl) (MOE); [5mC] = 5-methylcytosine; d = 2'-deoxy (DNA)
Key:
Factor XI mRNA = test: Cynomolgus monkeys, 25 mg/kg: liver Factor XI RNA analysis (Example 30); format: in vivo; conditions: for % inhibition of Factor XI mRNA in liver relative to the PBS control: 25 mg/kg s.c., day 55; for Factor XI mRNA in liver (in words): cynomolgus monkeys, day 55, in comparison to the PBS control
Procedure: (§1) Groups, each consisting of two male and two female monkeys, were injected subcutaneously with 25 mg/kg of ISIS 416850, ISIS 449709, ISIS 445522, ISIS 449710, ISIS 449707, ISIS 449711, ISIS 449708, 416858 and ISIS 445531. Antisense oligonucleotide was administered to the monkeys at 25 mg/kg three times per week for week 1 and 25 mg/kg twice per week for weeks 2 to 8. A control group, consisting of two male and two female monkeys was injected subcutaneously with PBS according to the same dosing regimen. Body weights were taken 14 days and 7 days before the start of treatment and were then measured weekly throughout the treatment period. Blood samples were collected 14 days and 5 days before the start of treatment and subsequently several times during the dosing regimen for measurement of various hematologic factors. On day 55, the monkeys were euthanized by exsanguination while under deep anesthesia, and organs harvested for further analysis.
On day 55, RNA was extracted from liver tissue for real-time PCR analysis of Factor XI using primer probe set LTS00301. Results are presented as percent inhibition of Factor XI, relative to PBS control.

Factor XI protein = test: Cynomolgus monkeys: plasma Factor XI protein ELISA (Example 30); format: in vivo; conditions: 25 mg/kg s.c., plasma ELISA
Procedure: as §1
Plasma samples from all monkey groups taken on different days were analyzed by a sandwich-style ELISA assay (Affinity Biologicals Inc.) using an affinity-purified polyclonal anti-Factor XI antibody as the capture antibody and a peroxidase-conjugated polyclonal anti-Factor XI antibody as the detecting antibody. Monkey plasma was diluted 1:50 for the assay. Peroxidase activity was expressed by incubation with the substrate o-phenylenediamine. The color produced was quantified using a microplate reader at 490 nm and was considered to be proportional to the concentration of Factor XI in the samples.
The results are presented in Table 148, expressed as percentage reduction relative to that of the PBS control.

human Factor XI mRNA = test: Dose-dependent inhibition and IC50 in HepG2 cells, microwalk gapmers, electroporation (Example 16); format: cell-based
Procedure: These gapmers were tested at various doses in HepG2 cells. Cells were plated at a density of 20,000 cells per well and transfected using electroporation with 375 nM, 750 nM, 1,500 nM, 3,000 nM, 6,000 nM and 12,000 nM concentrations of antisense oligonucleotide, as specified in Table 54. After a treatment period of approximately 16 hours, RNA was isolated from the cells and Factor XI mRNA levels were measured by quantitative real-time PCR. Human Factor XI primer probe set RTS 2966 was used to measure mRNA levels. Factor XI mRNA levels were adjusted according to total RNA content, as measured by RIBOGREEN. Results are presented as percent inhibition of Factor XI, relative to untreated control cells.
ISIS 416850, ISIS 416858, ISIS 445522, and ISIS 445531 (see Table 52 above) were re-tested in vitro along with the microwalk gapmers under the same conditions described above.
The chimeric antisense oligonucleotides in Table 53 were designed as 3-8-3 MOE, 4-8-4 MOE, 2-10-2 MOE, 3-10-3 MOE, or 4-10-4 MOE gapmers. The 3-8-3 gapmer is 14 nucleotides in length, wherein the central gap segment is comprised of eight 2′-deoxynucleotides and is flanked on both sides (in the 5′ and 3′ directions) by wings comprising three nucleotides each. The 4-8-4 gapmer is 16 nucleotides in length, wherein the central gap segment is comprised of eight 2′-deoxynucleotides and is flanked on both sides (in the 5′ and 3′ directions) by wings comprising four nucleotides each. The 2-10-2 gapmer is 14 nucleotides in length, wherein the central gap segment is comprised of ten 2′-deoxynucleotides and is flanked on both sides (in the 5′ and 3′ directions) by wings comprising two nucleotides each. The 3-10-3 gapmer is 16 nucleotides in length, wherein the central gap segment is comprised of ten 2′-deoxynucleotides and is flanked on both sides (in the 5′ and 3′ directions) by wings comprising three nucleotides each. The 4-10-4 gapmer is 18 nucleotides in length, wherein the central gap segment is comprised of ten 2′-deoxynucleotides and is flanked on both sides (in the 5′ and 3′ directions) by wings comprising four nucleotides each. For each of the motifs (3-8-3, 4-8-4, 2-10-2, 3-10-3, and 4-10-4), each nucleotide in the 5′ wing segment and each nucleotide in the 3′ wing segment has a 2′-MOE modification. The internucleoside linkages throughout each gapmer are phosphorothioate (P═S) linkages. All cytidine residues throughout each gapmer are 5-methylcytidines. “Human Target start site” indicates the 5′-most nucleotide to which the gapmer is targeted in the human sequence. “Human Target stop site” indicates the 3′-most nucleotide to which the gapmer is targeted in the human sequence. Each gapmer listed in Table 53 is targeted to SEQ ID NO: 1 (GENBANK Accession No. NM_000128.3). Each gapmer is Table 53 is also fully cross-reactive with the rhesus monkey Factor XI gene sequence, designated herein as SEQ ID NO: 274 (exons 1-15 GENBANK Accession No. NW—001118167.1). ‘Rhesus monkey start site’ indicates the 5′-most nucleotide to which the gapmer is targeted in the rhesus monkey sequence. ‘Rhesus monkey stop site’ indicates the 3′-most nucleotide to which the gapmer is targeted to the rhesus monkey sequence.
The first two listed gapmers in Table 54 are the original gapmers (ISIS 416850 and ISIS 416858) from which the remaining gapmers were designed via microwalk and are designated by an asterisk.

[1] = test system: IL-1β, IL-6, IFN-γ, TNF-α, IL-8, MIP-1α, MCP-1, MIP-10, RANTES; test: Cynomolgus monkeys: cytokine and chemokine assays (Example 30); format: in vivo
Procedure: as §1
Blood samples obtained from all monkey groups were sent to Pierce Biotechnology (Woburn, Mass.) for measurements of chemokine and cytokine levels. Levels of IL-1β, IL-6, IFN-γ, and TNF-α were measured using the respective primate antibodies and levels of IL-8, MIP-1α, MCP-1, MIP-10 and RANTES were measured using the respective cross-reacting human antibodies. Measurements were taken 14 days before the start of treatment and on day 55, when the monkeys were euthanized.

[2] = day −14 (before start of treatment)

| Substance | % inhibition of Factor XI mRNA in liver relative to the PBS control (Factor XI mRNA) | Inhibition of Factor XI protein relative to the PBS control (Factor XI protein; Day 10) | Inhibition of Factor XI protein relative to the PBS control (Factor XI protein; Day 17) | Inhibition of Factor XI protein relative to the PBS control (Factor XI protein; Day 24) | Inhibition of Factor XI protein relative to the PBS control (Factor XI protein; Day 31) | Inhibition of Factor XI protein relative to the PBS control (Factor XI protein; Day 38) | Inhibition of Factor XI protein relative to the PBS control (Factor XI protein; Day 45) | Inhibition of Factor XI protein relative to the PBS control (Factor XI protein; Day 52) | Inhibition of Factor XI protein relative to the PBS control (Factor XI protein; Day 55) | Inhibition of Factor XI protein relative to the PBS control (Factor XI protein; Day −5) | Inhibition of Factor XI protein relative to the PBS control (Factor XI protein; Day −14) | percent inhibition of Factor XI mRNA (human Factor XI mRNA; electroporation, 375 nM) | percent inhibition of Factor XI mRNA (human Factor XI mRNA; electroporation, 750 nM) | percent inhibition of Factor XI mRNA (human Factor XI mRNA; electroporation, 1,500 nM) | percent inhibition of Factor XI mRNA (human Factor XI mRNA; electroporation, 3,000 nM) | percent inhibition of Factor XI mRNA (human Factor XI mRNA; electroporation, 6,000 nM) | percent inhibition of Factor XI mRNA (human Factor XI mRNA; electroporation, 12,000 nM) | Factor XI mRNA in liver (in words) (Factor XI mRNA) | IL-1β level ([1]; 25 mg/kg s.c., day 55) | MIP-1β level ([1]; 25 mg/kg s.c., day 55) | also measured |
| --- | --- | --- | --- | --- | --- | --- | --- | --- | --- | --- | --- | --- | --- | --- | --- | --- | --- | --- | --- | --- | --- |
| 449710 (antisense e[5mC]*eA*e[5mC]*dA*dG*dT*dT*dT*d[5mC]*dT*dG*dG*d[5mC]*eA*eG*eG) [compound 449710] | 52% | 10% | 14% | 17% | 25% | 20% | 23% | 4% | 24% | 0% | 1% | 2% | 21% | 52% | 70% | 82% | 87% | – | – | – | – |
| 449711 (antisense eA*e[5mC]*dA*dG*dT*dT*dT*d[5mC]*dT*dG*dG*d[5mC]*eA*eG) [compound 449711] | 0% | 5% | 3% | 6% | 9% | 2% | 4% | 3% | 5% | 1% | 0% | 6% | 14% | 1% | 7% | 32% | 52% | – | – | – | – |
| ISIS 449707: microwalk gapmer of Table 53 (antisense e[5mC]*eA*e[5mC]*eA*dG*dT*dT*dT*d[5mC]*dT*dG*dG*e[5mC]*eA*eG*eG) | – | – | – | – | – | – | – | – | – | – | – | – | – | – | – | – | – | significant reduction of Factor XI mRNA | 97 pg/mL | 49 pg/mL | IL-1β level [1, 2]: 115 pg/mL; MIP-1β level [1, 2]: 13 pg/mL |
| ISIS 449708: microwalk gapmer of Table 53 (antisense eA*e[5mC]*eA*dG*dT*dT*dT*d[5mC]*dT*dG*dG*e[5mC]*eA*eG) | – | – | – | – | – | – | – | – | – | – | – | – | – | – | – | – | – | significant reduction of Factor XI mRNA | 131 pg/mL | 128 pg/mL | IL-1β level [1, 2]: 35 pg/mL; MIP-1β level [1, 2]: 19 pg/mL |

From US20120083522A1, “MODULATION OF INFLAMMATORY RESPONSES BY FACTOR XI” (Isis Pharmaceuitcals, inc., priority 2009, published 2012)
